Data on eight molecules can be found in patent publication US7041665B2, “Benzoxazinone derivatives, their preparation and use as medicaments” (Laboratories del Dr. Esteve, S.A., priority 2002, dated 2006).

Data set [1] has as its system male Wistar rats. Put plainly: Nocturnal ingestion test. Type of data set: in vivo, rat. As to conditions: intra-peritoneal, compared to control group. The procedure:
Measurement of the Intake in Animal Models
The animals employed were male Wistar rats (200–270 g) supplied by Harlan, S. A. The acclimatization period in our stable before being used in the experimental trials was at least 5 days. In this time the animals were stabled in groups of 5 in translucid cages, with water and food ad libitum. The animals were acclimatized to individual stabling at least 24 hours before conducting the experiment.
The test is carried out in the animal's cage in order to minimize the stress implied in a change of cage, which could affect the intake. Water and food are available at all times ad libitum. Immediately before turning out the lights in the room the animals are weighed and randomly assigned to a treatment group (vehicle or product under study). Immediately after the administration the rats are returned to their cages, where a known amount of food had been placed. The following morning the amount of food remaining in each cage was weighed, and the animals were again weighed.
References: Ants Kask et al., Journal of Pharmacology, 414 (2001) 215–224; Andrew V. Turnbull et al., Diabetes, Vol. 51, August 2002
Effect of Some Compounds of the Invention on Nocturnal Ingestion in Male Wistar Rats (Intra-Peritoneal Administration)

Data set [2] deals with T1, Neuropeptide Y5 (Rattus norvegicus, UniProt Q63634).
T1 construct: their brains are rapidly removed and the cortex is dissected; from tissue; host or cells: rat brain cortex membranes (male Wistar rats)
T1 sequence (Q63634 1-445): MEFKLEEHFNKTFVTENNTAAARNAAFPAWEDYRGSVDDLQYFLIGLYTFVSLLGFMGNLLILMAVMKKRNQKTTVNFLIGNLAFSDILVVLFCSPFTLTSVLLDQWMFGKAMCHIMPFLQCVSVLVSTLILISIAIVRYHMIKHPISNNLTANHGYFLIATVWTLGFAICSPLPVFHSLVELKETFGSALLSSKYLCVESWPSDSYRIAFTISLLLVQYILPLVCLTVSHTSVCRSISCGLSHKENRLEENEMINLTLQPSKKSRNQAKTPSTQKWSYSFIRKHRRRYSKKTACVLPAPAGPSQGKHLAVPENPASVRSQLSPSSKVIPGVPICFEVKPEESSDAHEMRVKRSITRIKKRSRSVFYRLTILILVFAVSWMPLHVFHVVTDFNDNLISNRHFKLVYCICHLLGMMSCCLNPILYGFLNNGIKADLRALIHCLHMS
Put plainly: Binding to Neuropeptide Y5, [125I]-PYY(3-36), BIBP 3226 sat., rat cortex membranes. As to conditions: radioligand [125I]-PYY3-36, 1 μM BIBP 3226 to saturate Y1, 25° C., 120 minutes. The protocol:
Binding to Neuropeptide Y5
(§1) Male Wistar rats are sacrificed by decapitation, their brains are rapidly removed and the cortex is dissected. Homogenization is performed in cold conditions in the buffer: 120 mM NaCl, 4.7 mM KCl, 2.2 mM CaCl2, 1.2 mM KH2PO4, 1.2 mM MgSO4, 25 mM NaHCO3, 5.5 mM glucose, pH 7.4, by means of a Ultra-Turrax homogenizer for 15 seconds at 13,500 rpm. The ratio between fresh tissue weight and buffer volume is of twenty times. The membrane is centrifuged for 10 min at 48,000 g. The supernatant is discarded and the pellet is washed, resuspended and recentrifuged three more times. The final membrane resuspension is performed in the buffer: 120 mM NaCl, 4.7 mM KCl, 2.2 mM CaCl2, 1.2 mM KH2PO4, 1.2 mM MgSO4, 25 mM NaHCO3, 5.5 mM glucose, 0.1% BSA, 0.05% bacitracin, pH 7.4, at a ratio of 20 ml/g fresh tissue. […] Incubation volume: 500 μl. […] The filters are cold-washed three times with two milliliters of the same buffer used in homogenization. […] Non-specific binding is determined in the presence of 1 μM of pNPY (porcin Neuropeptide Y). The assays are performed in triplicate.

Data set [3] has as its target T2, Neuropeptide Y2 (Rattus norvegicus, UniProt Q9ERC0).
T2 construct: their brains are rapidly removed and the hypoccampus is dissected; from tissue; host or cells: rat hippocampus membranes (male Wistar rats)
T2 sequence (Q9ERC0 1-381): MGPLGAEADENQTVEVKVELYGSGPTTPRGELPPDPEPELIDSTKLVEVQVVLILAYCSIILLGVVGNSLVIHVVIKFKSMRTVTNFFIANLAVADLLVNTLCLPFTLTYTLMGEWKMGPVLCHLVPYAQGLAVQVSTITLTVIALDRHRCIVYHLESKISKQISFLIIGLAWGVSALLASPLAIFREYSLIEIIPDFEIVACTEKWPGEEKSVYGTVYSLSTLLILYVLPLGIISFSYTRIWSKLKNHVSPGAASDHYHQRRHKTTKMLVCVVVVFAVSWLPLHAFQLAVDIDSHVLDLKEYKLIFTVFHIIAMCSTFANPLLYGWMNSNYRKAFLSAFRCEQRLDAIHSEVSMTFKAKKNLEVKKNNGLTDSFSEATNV
Put plainly: Binding to Neuropeptide Y2, [125I]-PYY(3-36), rat hypoccampus membranes. As to conditions: radioligand [125I]-PYY3-36, 25° C., 150 minutes. The procedure: Binding to Neuropeptide Y2
as §1, with “the hypoccampus” for “the cortex”, “of ten” for “of twenty”, “recentrifuged two” for “recentrifuged three”, “times.” for “times. The final membrane resuspension is performed in the buffer: 120 mM NaCl, 4.7 mM KCl, 2.2 mM CaCl2, 1.2 mM KH2PO4, 1.2 mM MgSO4, 25 mM NaHCO3, 5.5 mM glucose, 0.1% BSA, 0.05% bacitracin, pH 7.4, at a ratio of 20 ml/g fresh tissue.”, “with three” for “with two”

pKi: −log10 of the molar value. Where a name gives a salt, the structure may show the parent alone.

On to “1-{1-[N-(9-oxo-9H-fluoren-3-yl)aminocarbonylmethyl]-4-(piperidinyl)}-8-methyl-1,4-dihydro-2H-3,1-benzoxazin-2-one hydrochloride [Example 35]”, for which, in data set [1] (20 mg/kg), the “Effect on nocturnal ingestion: body weight of the animals” value (from here on “Effect … of the animals”) is “reduces body” and the “Effect on nocturnal ingestion: food intake” value (“Effect … food intake” below) is reported as “Reduces food intake”.

Take `O=C(CN1CCC(N2C(=O)OCc3ccccc32)CC1)Nc1ccc2c(c1)CCCC2=O` [Example 6, 1-{1-[N-(1-oxo-1,2,3,4-tetrahydronaphthalen-6-yl)aminocarbonylmethyl]-4-(piperidinyl)}-1,4-dihydro-2H-3,1-benzoxazin-2-one hydrochloride]: the pKi in data set [2] was 7.74; in data set [3], under 6.00.

`O=C(CN1CCC(N2C(=O)OCc3ccccc32)CC1)Nc1ccc2c(c1)CCCC2=O` (as salt: HCl) [Example 6, 1-{1-[N-(1-oxo-1,2,3,4-tetrahydronaphthalen-6-yl)aminocarbonylmethyl]-4-(piperidinyl)}-1,4-dihydro-2H-3,1-benzoxazin-2-one hydrochloride] gave a melting point of 260 to 264 °C.

On to `O=C(CN1CCC(N2C(=O)OCc3ccccc32)CC1)Nc1ccc2c(c1)-c1ccccc1C2=O` (as salt: HCl) [Example 3, 1-{1-[N-(9-oxo-9H-fluoren-3-yl)aminocarbonylmethyl]-4-(piperidinyl)}-1,4-dihydro-2H-3,1-benzoxazin-2-one hydrochloride], for which the melting point was over 275 °C.

In turn, `Cc1ccc2c(c1)COC(=O)N2C1CCN(CC(=O)Nc2ccc3c(c2)-c2ccccc2C3=O)CC1` (as salt: HCl) [Example 20, 1-{1-[N-(9-oxo-9H-fluoren-3-yl)aminocarbonylmethyl]-4-(piperidinyl)}-6-methyl-1,4-dihydro-2 H-3,1-benzoxazin-2-one hydrochloride] yielded a melting point of 250 to 252 °C.

On to `Cc1ccc2c(c1)COC(=O)N2C1CCN(CC(=O)Nc2ccc3c(c2)-c2ccccc2C3=O)CC1` [Example 20, 1-{1-[N-(9-oxo-9H-fluoren-3-yl)aminocarbonylmethyl]-4-(piperidinyl)}-6-methyl-1,4-dihydro-2 H-3,1-benzoxazin-2-one hydrochloride], for which, in data set [1] (40 mg/kg), the “Effect … of the animals” value is given as “reduces body” and the “Effect … food intake” value is “Reduces food intake”. The negative logarithm of the Ki (pKi) in data set [2] was 9.06.

Regarding `CCn1c2ccccc2c2cc(NC(=O)CN3CCC(N4C(=O)OCc5ccccc54)CC3)ccc21` [Example 18, 1-{1-[N-(9-ethyl-9H-carbazol-3-yl)aminocarbonylmethyl]-4-(piperidinyl)}-1,4-dihydro-2H-3,1-benzoxazin-2-one hydrochloride], in data set [1] (40 mg/kg), the “Effect … of the animals” value is on record as “reduces body” and the “Effect … food intake” value is listed as “Reduces food intake”.

In turn, `O=C(CN1CCC(N2C(=O)OCc3ccccc32)CC1)Nc1ccc2c(c1)-c1ccccc1C2=O` [Example 3, 1-{1-[N-(9-oxo-9H-fluoren-3-yl)aminocarbonylmethyl]-4-(piperidinyl)}-1,4-dihydro-2H-3,1-benzoxazin-2-one hydrochloride] had a pKi in data set [2] of 8.19.

As usually defined, the pKi is the negative decadic logarithm of the Ki, by convention in mol/L. Low readings indicate a large Ki, high ones a small Ki. In general, melting point refers to the temperature of the solid-liquid transition.
